Fluorescence lifetime data for 34 compounds are collected here from the Deep4Chem optical property database.

The nature of this series: solvent given as SMILES.

`Cc1ccc(C2=C3C=C(I)C=[N+]3[B-](F)(F)n3cccc32)cc1`: the fluorescence lifetime by setting is: (in C1CCCCC1) 0.184 ns; (in CC#N) 0.06 ns; (in CCO) 0.07 ns; (in CCOC(C)=O) 0.082 ns; (in CO) 0.063 ns; (in OCC(F)(F)F) 0.069 ns.
`CNc1cccc2c1C(=O)c1ccccc1-2` came in with a fluorescence lifetime (in C1CCCCC1) of 1.6 ns, a fluorescence lifetime (in CC#N) of 4.2 ns, a fluorescence lifetime (in CCO) of 2.8 ns and a fluorescence lifetime (in c1ccccc1) of 2.8 ns.
On to `CCCCCCCCN1C(=O)c2ccc3c4c(-c5ccc(-n6c7ccccc7c7ccccc76)cc5)cc5c6c(ccc(c7c(-c8ccc(-n9c%10ccccc%10c%10ccccc%109)cc8)cc(c2c37)C1=O)c64)C(=O)N(CCCCCCCC)C5=O`, for which the fluorescence lifetime (in ClC(Cl)Cl) worked out at 3.4 ns.
As to `Brc1cc(/C=C/c2ccc(N(c3ccccc3)c3ccccc3)cc2)c(Br)cc1/C=C/c1ccc(N(c2ccccc2)c2ccccc2)cc1`, the fluorescence lifetime (in ClCCl) came to 0.89 ns.
Where the note is “in ClC(Cl)Cl”, `Cc1cc(C2=Cc3cccc[n+]3[B-](F)(F)O2)ccc1N(C)C` displayed a fluorescence lifetime of 2.74 ns.
For `N#CC(C#N)=C(/C=C/c1ccc(N(c2ccccc2)c2ccccc2)cc1)c1ccc2c3c(cccc13)CC2`, the fluorescence lifetime by setting is: (in C1CCOC1) 3.5 ns; (in CC#N) 1.22 ns; (in CC(C)=O) 1.04 ns; (in CCOC(C)=O) 3.01 ns; (in CN(C)C=O) 1.02 ns; (in CO) 2.1 ns. Moreover, the fluorescence lifetime by setting is: (in Cc1ccccc1) 2.26 ns; (in ClC(Cl)Cl) 6.54 ns.
Regarding `Cc1cc(=O)oc2c1cc(Br)c1occ(C)c12`, the fluorescence lifetime is, setting by setting: (in C1COCCO1) 0.023 ns; (in CC#N) 0.044 ns; (in CCO) 0.08 ns; (in OCC(F)(F)F) 0.13 ns.
Turning to `CC(C)[Si]1(C(C)C)c2cc(C=C(C#N)C#N)ccc2-c2ccc(N(C)C)cc21`, the fluorescence lifetime runs as follows: (in C1CCCCC1) 0.3 ns; (in ClCCl) 3.2 ns.
On to `CC(=O)O[B-]1(OC(C)=O)OC(/C=C/C=C/c2ccccc2)=CC(/C=C/C=C/c2ccccc2)=[O+]1`, for which the fluorescence lifetime by setting is: (in C1CCOC1) 2.38 ns; (in CC#N) 1.81 ns; (in CC(C)=O) 1.77 ns; (in CS(C)=O) 2.03 ns; (in Cc1ccccc1) 2.57 ns; (in ClC(Cl)Cl) 1.93 ns. Where the note is “in ClCCl”, the fluorescence lifetime was 1.84 ns.
For `F[B-]1(F)OC(c2ccccc2)=Cc2cc(Cl)nc[n+]21`, the fluorescence lifetime (in Cc1ccccc1) was 0.19 ns.
For the compound `Cc1cc(C)c(C2=[N+]3C(=Cc4c(C)cc(C)n4[B-]3(F)F)c3ccccc32)[nH]1`, the fluorescence lifetime turned out to be 3.75 ns (in C1CCOC1); 4.34 ns (in CC#N); 7.17 ns (in CCCCCC); 4.98 ns (in CO); 6.14 ns (in Cc1ccccc1); 6.4 ns (in ClCCl).
In the case of `FC(F)(F)c1ccc(-n2c(-c3ccc(N(c4ccc(-c5ccc(N(c6ccc(-c7nc8c9ccccc9c9ccccc9c8n7-c7ccc(C(F)(F)F)cc7)cc6)c6ccc(-c7nc8c9ccccc9c9ccccc9c8n7-c7ccc(C(F)(F)F)cc7)cc6)cc5)cc4)c4ccc(-c5nc6c7ccccc7c7ccccc7c6n5-c5ccc(C(F)(F)F)cc5)cc4)cc3)nc3c4ccccc4c4ccccc4c32)cc1`, the fluorescence lifetime (in ClCCl) was 1.61 ns.
`Cc1ccc(NC(=O)c2sc(Br)nc2C)cc1`: the fluorescence lifetime was 0.22 ns (in CO) and 0.12 ns (in ClC(Cl)Cl).
Regarding `CC1=C(C(C)(C)C)C(C)=[N+]2C1=C(C)c1c(C)c(C(C)(C)C)c(C)n1[B-]2(F)F`, the fluorescence lifetime by setting is: (in C1CCCCC1) 3.91 ns; (in C1CCOC1) 4.15 ns; (in C1COCCO1) 4.37 ns; (in CC#N) 4.27 ns; (in CC(C)=O) 4.34 ns; (in CC(C)CC(C)(C)C) 4.43 ns. In addition, the fluorescence lifetime is, setting by setting: (in CCC(C)C) 4.19 ns; (in CCCC(C)=O) 4.54 ns; (in CCCCCC) 4.35 ns; (in CCCCCCCCO) 4.68 ns; (in CCCCCCO) 4.59 ns; (in CCCCO) 4.33 ns. For the same compound, the fluorescence lifetime stood at 4.51 ns (in CCCCOC(C)=O); 4.19 ns (in CCCO); 4.09 ns (in CCO); 4.31 ns (in CCOC(C)=O); 4.27 ns (in CCOCC); 4.69 ns (in CN(C)C=O). The fluorescence lifetime worked out at 4.45 ns (in CNC=O), 4.21 ns (in CO), 4.44 ns (in COC(C)=O) and 4.64 ns (in OCC(F)(F)F).
Take `CCN(CC)c1cccc(C=O)c1`: the fluorescence lifetime (in CC#N) turned out to be 11.7 ns; the fluorescence lifetime (in CC(C)O) is 1.47 ns; the fluorescence lifetime (in CCCCCC) was 5.95 ns; the fluorescence lifetime (in CCOC(C)=O) came to 14.3 ns; the fluorescence lifetime (in CS(C)=O) is 21.9 ns; the fluorescence lifetime (in Cc1ccccc1) came out at 16.2 ns. Also, the fluorescence lifetime (in ClCCl) was found to be 26.6 ns.
Where the note is “in ClCCl”, `COc1ccc2cc(/C=C/C3=[O+][B-](F)(F)OC(/C=C/c4ccc5cc(OC)ccc5c4)=C3c3ccccc3)ccc2c1` gave a fluorescence lifetime of 1.86 ns.
In the case of `CCN(CC)c1ccc2cc(-c3nc4ccccc4n3-c3ccccc3)c(=O)oc2c1`, the fluorescence lifetime (in ClCCl) is 13.2 ns.
For the compound `O=C1NC(=O)c2c1c1c3ccccc3[nH]c1c1[nH]c3ccccc3c21`, the fluorescence lifetime is, setting by setting: (in C1CCOC1) 8.6 ns; (in CC#N) 10 ns; (in CC(C)OC(C)C) 7.3 ns; (in CCCCOCCCC) 8 ns; (in CCO) 7.7 ns; (in CCOC(C)=O) 8.6 ns. Also, the fluorescence lifetime runs as follows: (in CN(C)C=O) 13 ns; (in ClCCl) 7.1 ns.
Where the note is “in Cc1ccccc1”, `COc1ccc(C2=C(c3ccccc3)C(c3ccccc3)=[N+]3C2=Nc2c(-c4ccc(OC)cc4)c(-c4ccccc4)c(-c4ccccc4)n2[B-]3(F)F)cc1` yielded a fluorescence lifetime of 0.26 ns.
For `CCN1C(=CC2=C([O-])C(=Cc3sc4ccccc4[n+]3CC)C2=O)Sc2ccccc21`, the fluorescence lifetime runs as follows: (in CO) 0.56 ns; (in ClC(Cl)Cl) 4.05 ns.
In turn, `CCN(CC)c1ccc2cc(/C=C3\CCCc4c3[o+]c3cc(N(CC)CC)ccc3c4-c3ccccc3C(=O)O)c(=O)oc2c1` had a fluorescence lifetime (in ClCCl) of 0.36 ns.
As to `CCCCc1ccc2ccc3c(CCCC)ccc4ccc1c2c43`, the fluorescence lifetime came out at 57.8 ns (in CCCCCC), 70.6 ns (in CO) and 42 ns (in ClCCl).
For `O=S(=O)(c1ccc(N(c2ccccc2)c2ccccc2)cc1)c1ccc(N(c2ccccc2)c2ccccc2)cc1`, the fluorescence lifetime runs as follows: (in Cc1ccccc1) 2.2 ns; (in O=P(c1ccccc1)(c1ccccc1)c1ccccc1Oc1ccccc1P(=O)(c1ccccc1)c1ccccc1) 3.5 ns.
For the compound `COc1cc2cc(/C=C/c3ccc(/C=C(\C#N)C(=O)O)cc3)c(=O)oc2cc1OC`, the fluorescence lifetime (in CC#N) was determined as 2.06 ns.
`C(/C=C/c1ccc(-n2c3ccccc3c3ccccc32)cc1)=C\c1ccncc1`: the fluorescence lifetime turned out to be 1.32 ns (in C1COCCO1) and 2.52 ns (in CC#N).
As for `CC(C)(C)c1ccc2c(c1)c1cc(C(C)(C)C)ccc1n2-c1ccc(C#Cc2cccc(C#Cc3ccc(-n4c5ccc(C(C)(C)C)cc5c5cc(C(C)(C)C)ccc54)cc3)c2)cc1`, the fluorescence lifetime (in CC#N) is 5.51 ns; the fluorescence lifetime (in CCCCC) came out at 1.38 ns; the fluorescence lifetime (in CO) came to 4.88 ns; the fluorescence lifetime (in Cc1ccccc1) is 1.65 ns; the fluorescence lifetime (in ClC(Cl)Cl) was 2.51 ns; the fluorescence lifetime (in ClCCl) was found to be 3.62 ns.
Where the note is “in ClCCl”, `CCCCCCCCCCCCN1C(=O)c2c(c3ccc4cc(-c5ccc(N(C)C)cc5)c(OC)cc4c3c3c2ccc2cc(-c4ccc(N(C)C)cc4)c(OC)cc23)C1=O` registered a fluorescence lifetime of 5.85 ns.
Compound `c1ccc(N2c3ccc4ccccc4c3-c3c4ccccc4cc[n+]3[B-]2(c2ccccc2)c2ccccc2)cc1` registered a fluorescence lifetime (in Cc1ccccc1) of 6.31 ns.
`CCN(CC)c1ccc(-c2cc3c(s2)c(C(=O)OC)cc(=O)n3C)cc1` showed a fluorescence lifetime (in ClCCl) of 6.59 ns.
For the compound `COc1cc2c(cc1/C=C/C(=C(C#N)C#N)c1ccccc1)c1ccccc1n2C`, the fluorescence lifetime came to 7.35 ns (in C1CCOC1); 7.64 ns (in CC#N); 5.52 ns (in CCO); 6.74 ns (in CCOC(C)=O); 7.2 ns (in CN(C)C=O); 9.07 ns (in CS(C)=O). For the same compound, the fluorescence lifetime by setting is: (in Cc1ccccc1) 7.98 ns; (in ClC(Cl)Cl) 8.11 ns; (in ClCCl) 6.44 ns.
For the compound `CCCCCCCCN1c2ccc(C#Cc3ccc(C(F)(F)F)cc3)cc2Sc2cc(C=O)ccc21`, the fluorescence lifetime runs as follows: (in C1CCOC1) 8.1 ns; (in CC#N) 6.52 ns; (in CCCCCC) 6.45 ns; (in CO) 4.04 ns; (in CS(C)=O) 7.77 ns; (in Cc1ccccc1) 7.43 ns. For the setting “in ClC(Cl)Cl”, this compound returned a fluorescence lifetime of 7.03 ns.
For `CCOC(=O)CN1C(=O)C2=C(c3ccc(N4CCCCC4)cc3)N(CC(=O)OCC)C(=O)C2=C1c1ccccc1`, the fluorescence lifetime is 2.7 ns (in CC#N), 6.7 ns (in CS(C)=O) and 4 ns (in Cc1ccccc1).
`CN1C(=CC=Cc2nc3nc4ccccc4nc3s2)C(C)(C)c2ccccc21`: the fluorescence lifetime reads like this: (in CCCCCCC(C)O) 1.04 ns; (in CCOC(C)=O) 0.92 ns; (in CO) 0.18 ns; (in CS(C)=O) 1.04 ns; (in Cc1ccccc1) 0.11 ns; (in ClC(Cl)Cl) 1.08 ns. The fluorescence lifetime (in ClCCl) was 0.99 ns.
In the case of `O=C1c2ccc(-c3ccc(N(c4ccc(-c5ccccc5)cc4)c4ccc(-c5ccccc5)cc4)cc3)cc2C(=O)c2ccc(-c3ccc(N(c4ccc(-c5ccccc5)cc4)c4ccc(-c5ccccc5)cc4)cc3)cc21`, the fluorescence lifetime by setting is: (in Cc1ccccc1) 11.2 ns; (in c1ccc2c(c1)c1ccccc1n2-c1ccc(-c2ccc(-n3c4ccccc4c4ccccc43)cc2)cc1) 10.2 ns.
